Experimental data from patent US8318781B2, “G-protein-conjugated receptor agonist” (Japan Science and Technology Agency, priority 2007, dated 2012).
Where two headings read alike, the source gives them in different places.

Tests used:
Assay type in all cases: cell-based
[1] = molecular target: T1, human GPR40 (hGPR40) (Homo sapiens, UniProt O14842); test: Determination of intracellular Ca2+ concentration (FLIPR), cell line TXGPR40; conditions: for agonistic activity for GPR40 (in words): cells in which GPR40 has been transgenically expressed; for [Ca^2+]/GPR40 10 μM (ratio vs. LA): relative fluorescence intensity vs LA at 10 μM
T1 construct: expressed in transfected cells; doxycycline-inducible expression vector
Description: (§1) (1) In this test, The cell lines TXGPR40, TXGPR120 and GPR120/Flp-in were plated onto a collagen-coated black 96-well plate in 2×10^5 cells/well. The 96-well plates containing the cells were centrifuged and treated with Doxycycline (final concentration 10 μg/mL), incubated in a CO2 incubator for 21 hours, then used for assay.
(§2) (2) The ligand used in this test includes NCP04, NCP14, NCG20, NCG21, NCG22, NCG23, NCP02, NCP03, NCP05, NCP06, NCG14, NCG17, NCG19, NCG28, NCG29, NCG30, NCG31, NCG34, NCG35, NCG37, NCG38, NCG44, NCG45, NCG46, and NCG54. Each ligand was dissolved in DMSO and adjusted to the concentration of 10 mM, then diluted with Hanks' Balanced Salt Solution (pH 7.4) containing 20 mM HEPES (referred to as FLIPR buffer hereinafter) to the final concentration of 1 to 100 μM. 1% DMSO was used as the negative control, and LA was used as the positive control.
(§3) The ligands and controls were placed in different 96-well plates from the plates for the cells.
(§4) (3) The 96-well plate containing the cells was removed from the CO2 incubator. A fluorescent dye prepared in a twofold higher concentration (Ca Assay Kit Component A diluted with FLIPR Buffer) was added in 50 μL/well, then allowed to stand in the dark at room temperature for one hour.
(§5) (4) After one hour, the 96-well plate containing the cells and the 96-well plate in which ligands and controls were prepared were set on FLIPR (Fluorometric Imaging Plate Reader) for determination.
(§6) (5) Fluorometry using FLIPR was carried out at a laser output of 1.0 W for five minutes. […] after the start of the determination, the ligand (25 μL) was added dropwise to the cell plate at a rate of 50 μL/sec. The intensity of fluorescence was automatically digitized by the application program installed in the FLIPR from the image taken by the CCD camera (with exposure time of 0.40 sec). The interval of data sampling was one second for the initial one minute after the start of operation, and six seconds for the subsequent four minutes.
(§7) (6) The maximum fluorescence intensity was obtained from the data showing the change in the fluorescence intensity over time observed in each well. The maximum fluorescence intensity was plotted against ligand concentration, and pEC50 was calculated. The ratio of the fluorescence intensity for each ligand to LA at 10 μM was calculated as the relative intensity of each ligand.

[2] = molecular target: T2, human GPR120 (hGPR120) (Homo sapiens, UniProt Q5NUL3); test: Determination of intracellular Ca2+ concentration (FLIPR), cell line GPR120/Flp-in; conditions: for [Ca^2+]/GPR120/Flp-In 10 μM (ratio vs. LA): relative fluorescence intensity vs LA at 10 μM
T2 construct: expressed in transfected cells; doxycycline-inducible expression vector
T2 sequence (Q5NUL3 1-361): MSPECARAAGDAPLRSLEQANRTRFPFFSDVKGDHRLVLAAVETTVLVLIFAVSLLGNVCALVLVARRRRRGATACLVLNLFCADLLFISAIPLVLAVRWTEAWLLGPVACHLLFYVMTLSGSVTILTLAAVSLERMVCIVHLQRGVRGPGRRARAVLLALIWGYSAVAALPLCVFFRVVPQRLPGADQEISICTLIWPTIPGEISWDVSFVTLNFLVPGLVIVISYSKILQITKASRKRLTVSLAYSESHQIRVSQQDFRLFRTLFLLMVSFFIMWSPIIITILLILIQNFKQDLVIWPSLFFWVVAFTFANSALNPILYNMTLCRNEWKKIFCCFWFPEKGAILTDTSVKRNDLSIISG
Description: as §1, §2, §3, §4, §5, §6, §7

[3] = molecular target: T2, human GPR120 (hGPR120); test: Determination of intracellular Ca2+ concentration (FLIPR), cell line TXGPR120; conditions: for agonistic activity for hGPR120 (in words): cells in which GPR120 has been transgenically expressed; for selectivity between GPR40 and GPR120 (in words), from Tables 3 and 4: GPR40 versus GPR120, Ca2+ and ERK results; for [Ca^2+]/GPR120 10 μM (ratio vs. LA): relative fluorescence intensity vs LA at 10 μM, TXGPR120 cells
Description: as §1, §2, §3, §4, §5, §6, §7

[4] = molecular target: T1, human GPR40 (hGPR40); test: ERK assay, screening for GPR40 ligands in cell line TXGPR40; conditions: ligand 10 μM, TXGPR40 cells, class relative to LA
Description: This Test 1 was carried out by using the following materials and methods.
(1) In this test, the cell lines TXGPR40 and TXGPR120 were plated in 35-mm dishes in 5×10^5 cells/per dish.
Each ligand was dissolved in DMSO, diluted tenfold with the medium to make the total amount of 100 μl. DMSO was used as the negative control, and PMA (phorbol-12-myristate-13-acetate) was used as the positive control.
(3) The medium was removed from the dish of the cell to reduce the total amount of liquid to 0.9 ml.
(4) The ligand solution was added dropwise to the cell solution, and dispersed by gently shaking the dish, and allowed to react at room temperature.
(5) After 5 minutes of reaction, the medium was discarded, and the remaining medium on the dish was removed on ice using an aspirator.
(6) 150 μl of Lysis buffer (50 mM HEPES (pH 7.0), 150 mM NaCl, 10% glycerol, 1% NonidetP-40, 2 mM MgCl2, 1 mM EDTA, 100 mM NaF, 10 mM sodium phosphate, 1 mM Na3VO4, 20 mM β-glycerophosphate, and Proteinase inhibitor) were added, then the cells were collected using a cell scraper.
(1) The crude enzyme solution mixed with SDS Sample Buffer was subjected to ultrasonication with a sonifier, then incubated at 90° C. for five minutes.
(2) The mixture was vortexed and centrifuged at 15,000 rpm for five minutes at 4° C.
(3) The supernatant of the centrifuged sample was applied to two 7.5% acrylamide gel slabs placed in an electrophoresis tank filled with 1×SDS-PAGE Running Buffer (25 mM Tris, 0.2 M Glycin, and 1% SDS). Electrophoresis was carried out under a constant current of 40 mA for about 80 to 90 minutes.
(1) A PVDF membrane cut in the same size as the gel slab was immersed in methanol for about 15 seconds and then shaken in Transfer Buffer C solution (25 mM Tris, 0.02% SDS, 2% methanol and 40 mM 6-aminohexanoic acid) at room temperature to swell for 15 minutes. Filter paper for blotting was cut into a 10-cm square.
(2) On the blotting apparatus were placed sequentially two pieces of filter paper immersed in A solution (0.3 M Tris, 0.02% SDS and 2% methanol), two pieces of filter paper immersed in B solution (25 mM Tris, 0.02% SDS and 2% methanol), and the membrane thereon. The gel slab after electrophoresis, and finally two pieces of filter paper immersed in C solution was placed thereon, and the apparatus was closed.
(3) The protein was transferred to the membrane at 15 V for 30 minutes.
(1) The following procedure was all carried out at room temperature. After the protein transfer, the membrane was placed into a vial containing 1×TTBS (0.2 M Tris, 1.5 M NaCl, 0.2% Tween 20) and washed for 15 minutes.
(2) TTBS was discarded, and about 10 ml of Block Ace was added and blocked on a shaker for one hour.
(1) The primary antibodies (p44/42 MAP Kinase Antibody and Phospho-p44/42 MAP Kinase Antibody) were each diluted 1000-fold with TTBS.
(2) After blocking, the Block Ace solution was removed, the solution of the primary antibody was added and allowed to react on the shaker for two hours.
(1) The secondary antibody (Anti-rabbit Ig, Horseradish Peroxidase linked F(ab′)2 fragments) was diluted 5000-fold with TTBS.
(2) The primary antibody solution was removed and the membrane was washed three times on the shaker in TTBS for five to ten minutes each.
(3) TTBS was removed and the solution of secondary antibody was added and left for 1 hour on the shaker.
(1) 2 ml each of Detection Reagent 1 and Detection Reagent 2 from ECL kit were mixed together on ice.
(2) The solution of secondary antibody was removed from the membrane reacted with the secondary antibody and then washed three times on the shaker in TTBS for five minutes each.
(3) The liquid was thoroughly removed from the membrane, which was then placed in a plastic bag, and 2 ml of the Detection Reagent mixture was added per each membrane.
(4) The membrane was kept in contact with a film in the cassette for one to five minutes, and the film was developed using an automatic developing machine.

[5] = TXGPR40 cells, maximum fluorescence intensity vs ligand concentration, read-out: [Ca^2+]/GPR40 pEC50 (converted)
[6] = GPR120/Flp-in cells, maximum fluorescence intensity vs ligand concentration, read-out: [Ca^2+]/GPR120/Flp-In pEC50 (converted)

T1 sequence (O14842 whole entry): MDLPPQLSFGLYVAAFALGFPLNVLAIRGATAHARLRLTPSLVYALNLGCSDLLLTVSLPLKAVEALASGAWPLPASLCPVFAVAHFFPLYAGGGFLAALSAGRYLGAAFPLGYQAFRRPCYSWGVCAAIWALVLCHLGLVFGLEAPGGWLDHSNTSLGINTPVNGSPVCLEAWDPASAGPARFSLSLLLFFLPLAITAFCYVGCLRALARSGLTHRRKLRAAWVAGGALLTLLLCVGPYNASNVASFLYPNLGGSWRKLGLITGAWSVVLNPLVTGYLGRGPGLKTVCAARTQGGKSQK

EC50 [1] [µM]	EC50 [2] [µM]	agonistic activity for hGPR120 (in words) [3]	selectivity between GPR40 and GPR120 (in words), from Tables 3 and 4 [3]	[Ca^2+]/GPR120 10 μM (ratio vs. LA) [3]	EC50 [1, 5] [µM]	agonistic activity for GPR40 (in words) [1]	[Ca^2+]/GPR40 10 μM (ratio vs. LA) ([1]; TXGPR40 cells)	ERK/GPR40 10 μM [4]	EC50 [2, 6] [µM]	[Ca^2+]/GPR120/Flp-In 10 μM (ratio vs. LA) ([2]; GPR120/Flp-in cells)	SMILES
27.5	12.6										CCCCN(CCOc1ccc(CCCC(=O)O)cc1)c1ccccn1 [NCG20, 4-{4-[2-(2-butylpyridinylamino)ethoxy]phenyl}butanoic acid]
		exhibit a similar effect									CCCCCCN(CCOc1ccc(CCC(=O)O)cc1)c1ccccn1 [NCP06]
		exhibit a similar effect	selective agonists for GPR40	0.00	3.39	showed a specific reactivity	1.34	++ (++ denotes 50 to 100% of LA)	5.89	0.59	c1ccc(Oc2cccc(CNc3ccc(CCc4nnn[nH]4)cc3)c2)cc1 [NCG17]
					20.4				19.1		CCCCN(CCOc1ccc(CCCCC(=O)O)cc1)c1ccccn1 [NCG22, 5-{4-[2-(2-butylpyridinylamino)ethoxy]phenyl}pentanoic acid]
		exhibit a similar effect	selective agonists for GPR40	0.00		showed a specific reactivity	1.17	++ (++ denotes 50 to 100% of LA)	14.8	0.43	O=C(O)CCc1ccc(NCc2cccc3ncccc23)cc1 [NCG14]
